Measured values taken from ChEMBL document CHEMBL1201862, “PubChem BioAssay data set” (2004).
Active and inactive are the calls of the source.

Columns and labels:
[1] = molecular target: T1, Neuropeptide Y receptor type 2 (Homo sapiens, UniProt P49146); test: Fluorescence-based counterscreen for agonists of NPY-Y1: cell-based high-throughput dose response assay for agonists of NPY-Y2.; assay type: functional
T1 sequence (P49146 whole entry): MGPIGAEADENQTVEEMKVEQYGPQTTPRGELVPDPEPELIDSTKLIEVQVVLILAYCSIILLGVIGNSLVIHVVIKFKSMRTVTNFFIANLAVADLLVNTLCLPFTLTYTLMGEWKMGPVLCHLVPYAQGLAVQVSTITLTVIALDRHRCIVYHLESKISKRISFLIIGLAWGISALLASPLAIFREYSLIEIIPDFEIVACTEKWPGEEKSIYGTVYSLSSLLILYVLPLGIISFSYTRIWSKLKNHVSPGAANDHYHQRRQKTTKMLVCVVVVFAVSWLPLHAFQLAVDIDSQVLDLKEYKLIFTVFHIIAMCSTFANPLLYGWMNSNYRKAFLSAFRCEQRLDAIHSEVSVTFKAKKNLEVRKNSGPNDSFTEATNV

[2] = system: HEK293; test: Fluorescence-based counterscreen for potentiators or agonists of NPY-Y1: cell-based high-throughput dose response assay for inhibitors of cyclic nucleotide gated ion channel (CNGC) activity. In this assay, the parental HEK293 cell line transfected with a cyclic-nucleotide gated ion channel (CNGC)-based cAMP sensor is used to measure inhibition of isoproterenol-induced CNGC …; assay type: functional; conditions: Homo sapiens
[3] = molecular target: T2, Neuropeptide Y receptor type 1 (Homo sapiens, UniProt P25929); test: Fluorescence-based dose response cell-based high-throughput screening assay for agonists of NPY-Y1. [Related pubchem assays: 1697 (Screening assay (NPY-Y1 agonists).), 1359 (Screening assay (NPY-Y2 potentiators or agonists).), 1304 (Screening assay (NPY-Y1 potentiators or agonists).), 1704 (Screening assay (CNGC inhibitors).), 1791 (Summary AID.)]; assay type: functional
T2 sequence (P25929 whole entry): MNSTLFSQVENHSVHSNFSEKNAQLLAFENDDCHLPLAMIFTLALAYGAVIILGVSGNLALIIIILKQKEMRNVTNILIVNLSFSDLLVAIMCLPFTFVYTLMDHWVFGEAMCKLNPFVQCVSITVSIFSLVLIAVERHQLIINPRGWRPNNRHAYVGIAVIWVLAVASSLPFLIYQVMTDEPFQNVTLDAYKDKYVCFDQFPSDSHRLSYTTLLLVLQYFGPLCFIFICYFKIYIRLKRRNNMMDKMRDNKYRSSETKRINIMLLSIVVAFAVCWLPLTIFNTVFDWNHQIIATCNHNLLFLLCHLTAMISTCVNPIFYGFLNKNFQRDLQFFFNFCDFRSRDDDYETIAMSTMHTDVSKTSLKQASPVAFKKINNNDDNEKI

[4] = molecular target: T3, Endoribonuclease toxin MazF (Escherichia coli K-12, UniProt P0AE70); test: MazF endoribonuclease activators, SAR follow-up, biochemical, fluorescence, single-stranded RNA substrate (AID 588603); assay type: functional
T3 sequence (P0AE70 whole entry): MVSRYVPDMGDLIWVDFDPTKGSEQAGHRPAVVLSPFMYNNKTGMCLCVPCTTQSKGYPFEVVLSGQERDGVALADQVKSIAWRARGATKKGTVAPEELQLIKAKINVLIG

[5] = molecular target: T3, Endoribonuclease toxin MazF; test: MazF toxin RNase activators, dose response, biochemical, fluorescence, single-stranded RNA substrate, uHTS hits (AID 588481); assay type: functional
[6] = system: MEF; test: SAR analysis of small molecule cytotoxicity of MazEF TA System activators in embryonic fibroblast (MEF) cells. [Related pubchem assays (depositor defined):AID504720, AID504743]; assay type: functional; conditions: Mus musculus
[7] = molecular target: T3, Endoribonuclease toxin MazF; test: SAR analysis of small molecule activators of the MazEF TA System via a fluorescence-based single-stranded RNase assay counterscreen. [Related pubchem assays (depositor defined):AID504720, AID504743]; assay type: functional
[8] = molecular target: T3, Endoribonuclease toxin MazF; test: fluorescent RNA oligo signal without MazF, dose response, counter-screen for MazEF activator project, biochemical, fluorescence, single-stranded RNase substrate (AID 588502); assay type: functional
[9] = molecular target: Nonstructural protein 1 (Influenza A virus, UniProt Q194T2); assay type: functional, Influenza A virus (A/California/07/2009(H1N1))
Chain of Nonstructural protein 1 (Q194T2 whole entry): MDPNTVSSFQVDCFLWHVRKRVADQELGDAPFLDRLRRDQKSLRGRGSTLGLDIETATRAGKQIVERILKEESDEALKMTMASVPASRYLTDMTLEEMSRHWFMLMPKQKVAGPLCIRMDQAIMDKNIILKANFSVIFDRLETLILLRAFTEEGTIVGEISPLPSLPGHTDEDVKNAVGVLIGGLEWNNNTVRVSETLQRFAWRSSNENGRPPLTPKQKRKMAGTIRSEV

[10] = molecular target: DNA topoisomerase (Yersinia pestis, UniProt A0A2S9PM60); test: Y. pestis Topo-I inhibitors, cleavage product readout, dose response, biochemical, cherry-pick (AID 588525)
Chain of DNA topoisomerase (A0A2S9PM60 whole entry): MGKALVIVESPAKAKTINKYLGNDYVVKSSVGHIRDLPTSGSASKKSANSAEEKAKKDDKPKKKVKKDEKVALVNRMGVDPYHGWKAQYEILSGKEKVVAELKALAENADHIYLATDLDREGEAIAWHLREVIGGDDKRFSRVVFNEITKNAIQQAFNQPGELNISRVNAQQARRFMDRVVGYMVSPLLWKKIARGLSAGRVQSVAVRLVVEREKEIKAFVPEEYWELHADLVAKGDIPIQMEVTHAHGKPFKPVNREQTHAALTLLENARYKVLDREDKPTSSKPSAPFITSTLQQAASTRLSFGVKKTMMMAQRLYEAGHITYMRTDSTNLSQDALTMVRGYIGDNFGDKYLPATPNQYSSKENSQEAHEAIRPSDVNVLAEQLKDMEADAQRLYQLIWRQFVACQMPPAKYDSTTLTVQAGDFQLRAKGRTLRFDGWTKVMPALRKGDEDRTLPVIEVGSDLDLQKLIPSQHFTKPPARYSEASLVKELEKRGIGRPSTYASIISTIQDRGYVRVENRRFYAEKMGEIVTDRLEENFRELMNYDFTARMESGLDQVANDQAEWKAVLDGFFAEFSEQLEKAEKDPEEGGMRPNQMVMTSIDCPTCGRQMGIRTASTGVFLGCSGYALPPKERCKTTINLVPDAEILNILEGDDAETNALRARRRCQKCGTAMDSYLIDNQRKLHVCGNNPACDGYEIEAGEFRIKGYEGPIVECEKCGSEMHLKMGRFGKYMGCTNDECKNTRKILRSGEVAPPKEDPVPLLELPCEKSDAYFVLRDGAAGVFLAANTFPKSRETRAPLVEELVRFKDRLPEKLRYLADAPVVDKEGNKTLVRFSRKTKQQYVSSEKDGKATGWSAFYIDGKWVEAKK

[11] = HeLa cell cytotoxicity, dose response, cytotoxicity control for MgcRacGAP inhibitor project (AID 624300); assay type: functional
[12] = molecular target: T4, Rac GTPase-activating protein 1 (Homo sapiens, UniProt Q9H0H5); test: MgcRacGAP GTPase-activating activity inhibitors, confirmation, biochemical, ADP Hunter fluorescence, primary and confirmatory (AID 624330); assay type: functional
T4 sequence (Q9H0H5 whole entry): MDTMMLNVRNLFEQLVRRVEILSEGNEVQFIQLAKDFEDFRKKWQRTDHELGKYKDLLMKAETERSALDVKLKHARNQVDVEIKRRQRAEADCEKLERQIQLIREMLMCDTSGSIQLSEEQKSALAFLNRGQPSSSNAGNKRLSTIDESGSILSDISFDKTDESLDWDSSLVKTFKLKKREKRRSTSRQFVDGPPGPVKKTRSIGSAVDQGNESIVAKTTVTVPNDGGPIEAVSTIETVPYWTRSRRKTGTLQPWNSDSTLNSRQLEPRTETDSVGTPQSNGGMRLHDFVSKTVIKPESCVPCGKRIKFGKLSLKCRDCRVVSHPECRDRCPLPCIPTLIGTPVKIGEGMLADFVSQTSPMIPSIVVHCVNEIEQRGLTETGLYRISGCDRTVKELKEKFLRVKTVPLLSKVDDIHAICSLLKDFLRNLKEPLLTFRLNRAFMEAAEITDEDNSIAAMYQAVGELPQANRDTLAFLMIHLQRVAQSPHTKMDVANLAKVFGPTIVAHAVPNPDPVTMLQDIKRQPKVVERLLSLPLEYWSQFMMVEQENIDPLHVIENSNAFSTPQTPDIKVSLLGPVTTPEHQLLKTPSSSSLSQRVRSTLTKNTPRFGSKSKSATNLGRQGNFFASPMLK

[13] = molecular target: T5, Histone-lysine N-methyltransferase NSD2 (Homo sapiens, UniProt O96028); assay type: biochemical
T5 sequence (O96028 whole entry): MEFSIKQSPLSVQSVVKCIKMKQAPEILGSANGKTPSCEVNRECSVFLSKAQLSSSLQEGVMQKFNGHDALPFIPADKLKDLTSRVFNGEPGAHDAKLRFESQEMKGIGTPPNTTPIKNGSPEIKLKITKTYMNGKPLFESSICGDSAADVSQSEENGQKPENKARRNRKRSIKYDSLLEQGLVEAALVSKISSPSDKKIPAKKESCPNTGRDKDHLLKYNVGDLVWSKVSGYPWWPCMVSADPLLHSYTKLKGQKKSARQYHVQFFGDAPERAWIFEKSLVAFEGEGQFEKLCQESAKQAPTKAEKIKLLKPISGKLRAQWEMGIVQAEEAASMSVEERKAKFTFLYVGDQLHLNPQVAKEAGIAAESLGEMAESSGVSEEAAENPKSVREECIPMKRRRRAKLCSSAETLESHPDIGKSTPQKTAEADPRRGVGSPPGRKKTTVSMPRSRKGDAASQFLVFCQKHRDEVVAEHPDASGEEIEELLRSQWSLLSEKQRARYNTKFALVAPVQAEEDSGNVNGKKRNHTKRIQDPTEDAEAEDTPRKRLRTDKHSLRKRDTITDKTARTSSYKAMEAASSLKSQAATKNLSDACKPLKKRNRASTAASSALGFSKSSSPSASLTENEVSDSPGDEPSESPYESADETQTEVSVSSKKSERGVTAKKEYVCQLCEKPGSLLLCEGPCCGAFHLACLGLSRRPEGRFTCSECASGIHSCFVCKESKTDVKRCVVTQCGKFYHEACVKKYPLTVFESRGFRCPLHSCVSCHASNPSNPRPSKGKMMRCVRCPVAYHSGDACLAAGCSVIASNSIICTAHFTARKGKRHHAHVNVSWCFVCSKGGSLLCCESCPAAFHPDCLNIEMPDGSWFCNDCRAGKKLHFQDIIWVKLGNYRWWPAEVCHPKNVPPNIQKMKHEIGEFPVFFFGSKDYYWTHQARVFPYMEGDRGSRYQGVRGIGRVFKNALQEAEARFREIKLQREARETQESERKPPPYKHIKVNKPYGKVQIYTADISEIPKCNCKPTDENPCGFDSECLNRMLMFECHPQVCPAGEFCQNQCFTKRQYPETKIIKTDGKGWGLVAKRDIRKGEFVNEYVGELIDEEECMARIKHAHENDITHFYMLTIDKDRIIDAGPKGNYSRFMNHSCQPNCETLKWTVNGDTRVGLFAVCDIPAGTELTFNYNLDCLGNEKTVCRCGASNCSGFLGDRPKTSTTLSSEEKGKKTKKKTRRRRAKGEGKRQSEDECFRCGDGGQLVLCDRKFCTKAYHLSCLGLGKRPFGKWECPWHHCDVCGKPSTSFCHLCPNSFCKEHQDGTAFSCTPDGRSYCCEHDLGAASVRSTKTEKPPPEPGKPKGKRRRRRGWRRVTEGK

| Compound | EC50 [1] | IC50 [2] | EC50 [3] | EC50 [4] | EC50 [5] | CC50 [6] | EC50 [7] | EC50 [8] | IC50 [9] | AC50 [10] | CC50 [11] | IC50 [12] | AC50 [13] |
| --- | --- | --- | --- | --- | --- | --- | --- | --- | --- | --- | --- | --- | --- |
| O=C(Nc1ccc(Cl)cc1Cl)NC1CCN(S(=O)(=O)c2ccc(F)cc2)CC1 | 6.58 µM (active) | 4.36 µM (active) | 7.41 µM (active) | 26.9 µM (inactive) | 7.09 µM (active) | 11.8 µM (active) | > 99 µM (inactive) | > 99 µM (inactive) |  |  |  |  |  |
| COc1cccc2c1C(=N)c1c(O)c3c(c(O)c1C2=O)C[C@@](O)(C(C)=O)C[C@@H]3O[C@H]1C[C@H](N)[C@H](O)[C@H](C)O1 |  |  |  |  |  |  |  |  | 11.2 µM (active) | 4.44 µM (active) | 35.4 µM (active) | 50.8 µM (active) | 11.5 µM (active) |
